According to PubChem BioAssay (NCI):
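All cell lines were grown in 96-well plates and treated with compound for 48 hours. TGI denotes the concentration required for complete inhibition of growth.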 Where a SMILES comes first, the peptide text is derived from it. Side-chain parts run from the residue outwards. The star is where a group is joined. Cbz = O=C(OCc1ccccc1)*; Boc = CC(C)(C)OC(=O)*

What was measured:
Assay in all cases: growth of human tumour cells (NCI), 48 h
U251 CNS = system: U251 CNS
K-562 leukemia = system: K-562 leukemia
SF-295 CNS = system: SF-295 CNS
UACC-257 melanoma = system: UACC-257 melanoma
SF-539 CNS = system: SF-539 CNS
OVCAR-8 ovarian = system: OVCAR-8 ovarian
BT-549 breast = system: BT-549 breast
SN12C renal = system: SN12C renal
SK-OV-3 ovarian = system: SK-OV-3 ovarian
NCI/ADR-RES ovarian = system: NCI/ADR-RES ovarian
MDA-N = system: MDA-N
RPMI-8226 leukemia = system: RPMI-8226 leukemia
NCI-H23 lung = system: NCI-H23 lung
MDA-MB-231 breast = system: MDA-MB-231 breast
LOX IMVI melanoma = system: LOX IMVI melanoma

With `COc1cc(C(c2cc(OC)c(OC)c(OC)c2)N2C(=O)CCC2C(=O)O)cc(OC)c1OC` (stereo unspecified) the TGI (U251 CNS) was over 100 µM, the TGI (K-562 leukemia) was over 100 µM and the TGI (SF-295 CNS) was over 100 µM. It also gave a TGI (UACC-257 melanoma) of over 100 µM, a TGI (SF-539 CNS) of over 100 µM and a TGI (OVCAR-8 ovarian) of over 100 µM. It also gave a TGI (BT-549 breast) of over 100 µM, a TGI (SN12C renal) of over 100 µM and a TGI (SK-OV-3 ovarian) of over 100 µM. For the same compound, the TGI (NCI/ADR-RES ovarian) was over 100 µM, the TGI (MDA-N) was over 100 µM and the TGI (RPMI-8226 leukemia) was over 100 µM. For the same compound, the TGI (NCI-H23 lung) was over 100 µM and the TGI (MDA-MB-231 breast) was over 100 µM.
Work on `CCC(=O)n1c(=O)n(-c2ccc([N+](=O)[O-])cc2)c(=O)n1C(=O)CC` yielded a TGI (U251 CNS) of over 100 µM, a TGI (K-562 leukemia) of over 100 µM and a TGI (SF-295 CNS) of over 100 µM. For the same compound, the TGI (UACC-257 melanoma) was over 100 µM, the TGI (OVCAR-8 ovarian) was over 100 µM and the TGI (BT-549 breast) was over 100 µM. For the same compound, the TGI (SN12C renal) was over 100 µM, the TGI (SK-OV-3 ovarian) was over 100 µM and the TGI (NCI/ADR-RES ovarian) was over 100 µM. The TGI (MDA-N) was over 100 µM, the TGI (LOX IMVI melanoma) was over 100 µM and the TGI (RPMI-8226 leukemia) was over 100 µM. It also gave a TGI (NCI-H23 lung) of over 100 µM and a TGI (MDA-MB-231 breast) of over 100 µM.
`COC(=O)C(Cc1ccccc1)NC(=O)C(CCCN=C(N)N)NC(=O)OCc1ccccc1` (stereo unspecified) gave a TGI (U251 CNS) of over 100 µM, a TGI (K-562 leukemia) of over 100 µM and a TGI (SF-295 CNS) of over 100 µM. For the same compound, the TGI (OVCAR-8 ovarian) was over 100 µM, the TGI (BT-549 breast) was over 100 µM and the TGI (SN12C renal) was over 100 µM. The TGI (SK-OV-3 ovarian) was over 100 µM, the TGI (NCI/ADR-RES ovarian) was over 100 µM and the TGI (MDA-N) was over 100 µM. The TGI (LOX IMVI melanoma) was over 100 µM, the TGI (RPMI-8226 leukemia) was over 100 µM and the TGI (NCI-H23 lung) was over 100 µM. The TGI (MDA-MB-231 breast) was over 100 µM.
Work on `CN(C)Cc1cc(C(=O)/C=C/c2c(F)cccc2Cl)cc(CN(C)C)c1O` yielded a TGI (U251 CNS) of 28.9 µM, a TGI (K-562 leukemia) of 26.8 µM and a TGI (SF-295 CNS) of 25.4 µM. The TGI (UACC-257 melanoma) was 24.6 µM, the TGI (OVCAR-8 ovarian) was 41.2 µM and the TGI (BT-549 breast) was 21.8 µM. The TGI (SN12C renal) was 17.2 µM, the TGI (SK-OV-3 ovarian) was 28.3 µM and the TGI (NCI/ADR-RES ovarian) was 75.7 µM. For the same compound, the TGI (MDA-N) was 29.1 µM, the TGI (LOX IMVI melanoma) was 18.5 µM and the TGI (RPMI-8226 leukemia) was 49.6 µM. The TGI (NCI-H23 lung) was 38.3 µM and the TGI (MDA-MB-231 breast) was 27.5 µM.
Work on `CCCCCCCCCCCCCCCCCCNC(=S)/N=C/c1c(O)cc(C)oc1=O` yielded a TGI (U251 CNS) of over 100 µM, a TGI (SF-295 CNS) of 64.7 µM and a TGI (UACC-257 melanoma) of 65.3 µM. The TGI (SF-539 CNS) was 62.3 µM, the TGI (OVCAR-8 ovarian) was 63.4 µM and the TGI (BT-549 breast) was 40.6 µM. It also gave a TGI (SN12C renal) of over 100 µM, a TGI (SK-OV-3 ovarian) of 87.4 µM and a TGI (NCI/ADR-RES ovarian) of over 100 µM. For the same compound, the TGI (MDA-N) was over 100 µM, the TGI (LOX IMVI melanoma) was over 100 µM and the TGI (NCI-H23 lung) was 47.8 µM. It also gave a TGI (MDA-MB-231 breast) of over 100 µM.
`CC(C)CC(NC(=O)OCc1ccccc1)C(=O)NCCCCC(NC(=O)C(CCCCNC(=O)C(CC(C)C)NC(=O)OCc1ccccc1)NC(=O)C(CCCCNC(=O)C(CC(C)C)NC(=O)OCc1ccccc1)NC(=O)C(CCCCNC(=O)C(CC(C)C)NC(=O)OCc1ccccc1)NC(=O)OC(C)(C)C)C(=O)O` (stereo unspecified) (Boc-K([Leu-Cbz])K([Leu-Cbz])K([Leu-Cbz])K([Leu-Cbz])-OH; configuration not given here) was tested, and the TGI (U251 CNS) was over 25 µM, the TGI (K-562 leukemia) was over 25 µM and the TGI (UACC-257 melanoma) was over 25 µM. For the same compound, the TGI (OVCAR-8 ovarian) was over 25 µM, the TGI (BT-549 breast) was over 25 µM and the TGI (SN12C renal) was over 25 µM. For the same compound, the TGI (MDA-N) was over 25 µM, the TGI (LOX IMVI melanoma) was over 25 µM and the TGI (RPMI-8226 leukemia) was over 25 µM. For the same compound, the TGI (NCI-H23 lung) was over 25 µM and the TGI (MDA-MB-231 breast) was over 25 µM.
`C/C(=N\Nc1ncnc2ccccc12)c1ccccn1` was tested, and the TGI (U251 CNS) was 34.4 µM, the TGI (K-562 leukemia) was over 4.64 µM and the TGI (SF-295 CNS) was 17.9 µM. The TGI (UACC-257 melanoma) was 8.65 µM, the TGI (SF-539 CNS) was 3.29 µM and the TGI (OVCAR-8 ovarian) was 2.41 µM. For the same compound, the TGI (BT-549 breast) was 35.5 µM, the TGI (SN12C renal) was 6.71 µM and the TGI (SK-OV-3 ovarian) was 4.03 µM. For the same compound, the TGI (NCI/ADR-RES ovarian) was 0.551 µM, the TGI (MDA-N) was 27.5 µM and the TGI (LOX IMVI melanoma) was 5.45 µM. It also gave a TGI (RPMI-8226 leukemia) of 1.62 µM and a TGI (NCI-H23 lung) of 16.4 µM.
Work on `O=C1CSC(c2c(O)ccc3ccccc23)N1n1c(=S)[nH]nc(/C=C/c2c(O)ccc3ccccc23)c1=O` (stereo unspecified) yielded a TGI (U251 CNS) of 16.4 µM, a TGI (K-562 leukemia) of 19.3 µM and a TGI (SF-295 CNS) of 37.2 µM. It also gave a TGI (UACC-257 melanoma) of 14.3 µM, a TGI (OVCAR-8 ovarian) of 21.4 µM and a TGI (BT-549 breast) of 23.5 µM. For the same compound, the TGI (SN12C renal) was 14.2 µM, the TGI (NCI/ADR-RES ovarian) was 14.7 µM and the TGI (MDA-N) was over 100 µM. It also gave a TGI (LOX IMVI melanoma) of 17.5 µM, a TGI (RPMI-8226 leukemia) of 17.4 µM and a TGI (NCI-H23 lung) of 23 µM. It also gave a TGI (MDA-MB-231 breast) of 20.7 µM.
Work on `COC(=O)C1=C2Nc3ccccc3C23CCN2C(O)C4(CC5CC67CCOC6CCN6CCC8(c9cccc(OC)c9N(C4)C58O)C67)C4OCCC4(C1)C23` (stereo unspecified) yielded a TGI (U251 CNS) of over 100 µM, a TGI (K-562 leukemia) of over 100 µM and a TGI (SF-295 CNS) of over 100 µM. It also gave a TGI (UACC-257 melanoma) of over 100 µM, a TGI (SF-539 CNS) of over 100 µM and a TGI (OVCAR-8 ovarian) of 61.3 µM. The TGI (BT-549 breast) was over 100 µM, the TGI (SN12C renal) was over 100 µM and the TGI (SK-OV-3 ovarian) was over 100 µM. It also gave a TGI (MDA-N) of over 100 µM, a TGI (LOX IMVI melanoma) of over 100 µM and a TGI (RPMI-8226 leukemia) of over 100 µM. The TGI (NCI-H23 lung) was over 100 µM and the TGI (MDA-MB-231 breast) was 61.3 µM.
`O=C(O)c1ccc(/C=N\N(CCO)C2=NCCN2)cc1` gave a TGI (U251 CNS) of over 100 µM, a TGI (K-562 leukemia) of over 100 µM and a TGI (SF-295 CNS) of over 100 µM. For the same compound, the TGI (SF-539 CNS) was over 100 µM, the TGI (OVCAR-8 ovarian) was over 100 µM and the TGI (BT-549 breast) was over 100 µM. The TGI (SN12C renal) was over 100 µM, the TGI (SK-OV-3 ovarian) was over 100 µM and the TGI (MDA-N) was over 100 µM. It also gave a TGI (LOX IMVI melanoma) of over 100 µM, a TGI (RPMI-8226 leukemia) of over 100 µM and a TGI (NCI-H23 lung) of over 100 µM. For the same compound, the TGI (MDA-MB-231 breast) was over 100 µM.
`CC(=O)O[C@@H]1CC2[C@@H](CCC3Cc4nc5c(nc4C[C@@]32C)CC2CC[C@@H]3C(CC[C@@]4(C)C3CC[C@@H]4C(C)CCCC(C)C)[C@@]2(C)C5)C2C[C@@H]3OC4(CCC(C)CO4)C(C)[C@@H]3[C@]21C` (stereo partly specified) showed a TGI (U251 CNS) of over 100 µM, a TGI (K-562 leukemia) of over 100 µM and a TGI (SF-295 CNS) of over 100 µM. For the same compound, the TGI (UACC-257 melanoma) was over 100 µM, the TGI (SF-539 CNS) was over 100 µM and the TGI (OVCAR-8 ovarian) was over 100 µM. For the same compound, the TGI (BT-549 breast) was over 100 µM, the TGI (SN12C renal) was over 100 µM and the TGI (SK-OV-3 ovarian) was over 100 µM. It also gave a TGI (NCI/ADR-RES ovarian) of over 100 µM, a TGI (MDA-N) of over 100 µM and a TGI (RPMI-8226 leukemia) of over 100 µM. For the same compound, the TGI (NCI-H23 lung) was over 100 µM and the TGI (MDA-MB-231 breast) was over 100 µM.
`CCC(c1nc2ccccc2c(=O)n1NC(=O)C(C)(C)C)C1(O)CCCCC1` (stereo unspecified) gave a TGI (U251 CNS) of over 100 µM, a TGI (K-562 leukemia) of over 100 µM and a TGI (SF-295 CNS) of over 100 µM. It also gave a TGI (UACC-257 melanoma) of over 100 µM, a TGI (SF-539 CNS) of over 100 µM and a TGI (OVCAR-8 ovarian) of over 100 µM. For the same compound, the TGI (BT-549 breast) was over 100 µM, the TGI (SN12C renal) was over 100 µM and the TGI (SK-OV-3 ovarian) was over 100 µM. The TGI (NCI/ADR-RES ovarian) was over 100 µM, the TGI (MDA-N) was over 100 µM and the TGI (RPMI-8226 leukemia) was over 100 µM. It also gave a TGI (NCI-H23 lung) of over 100 µM and a TGI (MDA-MB-231 breast) of over 100 µM.
